Experimental data taken from article PMC5216742, “Discovery and characterization of a novel potent type II native and mutant BCR-ABL inhibitor (CHMFL-074) for Chronic Myeloid Leukemia (CML)” (Oncotarget, 2016).
Values joined by “and” are separate entries in the source; they are usually repeats but may differ in a detail not shown here. Equal values may be shown once.

Tests used:
CHO = assay: Anti-proliferation, intact cancer cell lines; format: cell-based, Chinese hamster; conditions: Cricetulus griseus, 72 h
Protocol: The K562 (CML), KU812 (CML), MEG-01 (CML), MV4-11 (AML), MOLM14 (AML), U937 (AML), REC-1 (Human B-cell lymphoma cell), HL-60 (Human promyelocytic leukemia cells), MEC-1(CLL), CHL (Hamster lung cell), CHO (Hamster ovary cell) cell lines were obtained from American Type Culture Collection (Manassas, VA). All the cells were grown in a humidified incubator (Thermo, USA) at 37°C under 5% CO2. CHO cells were maintained in DMEM supplemented with 10% FBS, 1% penicillin/strepto-mycin. MV4-11 (AML) were grown in IMDM supplemented with 10% FBS, 1% penicillin/streptomycin. […] For suspension cells, cells were collected by spinning down at 800 rpm/min for 5 min before use.
A density of 1 × 10^4 to 2.5 × 10^4 cells/mL cells were mixed with various concentrations of compounds then 100 μL suspension was added to each well and incubated for 72 hours. Cell viability was determined using the CellTiter-Glo assay (Promega, USA) or CCK-8 assay (Beboy, China). Both assays were performed according to the manufacturer instructions. For CellTiter-Glo assay, luminescence was determined in a multi-label reader (Envision, PerkinElmer, USA). […] Data were normalized to control group (DMSO). GI50 were calculated using Prism 6.0 (GraphPad Software, San Diego, CA).

[1] = biological target: T1, ABL1(M351T)-phosphorylated (Homo sapiens, UniProt P00519, M351T); assay: KinomeScan profiling; format: binding; conditions: 1 µM CHMFL-074; read-out: % Control
T1 construct: purchased DiscoveRx (KinomeScan service)

ABL1 kinase [2] = biological target: T2, ABL1 kinase (Homo sapiens, UniProt P00519); assay: Microscale thermophoresis (MST) binding Kd assay; conditions: binding Kd against ABL1 kinase
T2 construct: A construct encoding c-ABL residues 229–500 with a His tag; made in house; host or cells: SF9 insect cells (baculovirus, pFASTHTA)
Protocol: (§1) A construct encoding c-ABL residues 229–500 with a His tag was cloned into baculovirus expression vector pFASTHTA. The protein was expressed by infecting SF9 cells with high titer viral stocks for 48 hours. Cells were harvested and lysed in 30 mM Tris pH 7.4, 150 mM NaCl, 3 mM KCl, 10% glycerol, 1 mM PMSF, 2 mM TCEP, 1 mM ADP, 20 mM Imidazole. The supernatant was loaded to Ni-NTA Column (QIAGEN, 1018244). Then the proteins were gradient washed using the same buffer with 50 mM, 100 mM imidazole, then the ABL protein was eluted with Elution buffer (20 mM Tris, 500 mM NaCl, 1% glycerol, 1 mM TCEP, 0.5 mM ADP, 300 mM Imidazole, pH 8.0). The eluted protein was loaded on desalt column PD-10(GE) to change the buffer to 20 mM Tris, 500 mM NaCl, 1% glycerol, 2 mM TCEP, pH 8.0. The protein was concentrated to 1 mg/ml and aliquots were frozen and stored at −80 °C.
The Kd was measured using the Monolith NT.115 from Nanotemper Technologies. Proteins were fluorescently labeled according to the manufacturer's protocol. […] The sample was loaded into the NanoTemper glass capillaries and microthermophoresis carried out using 20% LED power and 30% MST Power. KD were calculated using the mass action equation via the NanoTemper software from duplicate reads of triplicate experiments.

BCR-ABL = biological target: T3, BCR-ABL (Homo sapiens, UniProt P00519); assay: BCR-ABL auto-phosphorylation (Y245) immunoblotting in K562 cells; format: cell-based
T3 construct: BCR N-terminal part (natural fusion partner of p210 BCR-ABL); endogenous in cells; host or cells: K562
Protocol: Cells were washed with ice cold phosphate buffered saline (PBS), lysed using radio-immunoprecipitation (RIPA) buffer [150 mM NaCl, 1% (vol/vol) Nonidet P-40, 0.5% (wt/vol) sodium deoxycholate, 0.1% (wt/vol) SDS] in 50 mM Tris HCl (pH 8.0) supplemented with protease and phosphatase inhibitors (Thermo, USA). Protein concentrations were determined using the BCA Protein Assay kit (Beyotime, China) according to the manufacturer's protocol. Proteins were separated by SDS-PAGE and transferred to an Immobilon-P PVDF membrane (Millipore, USA), and blocked in 5% dry milk in Tris Buffered Saline, with Tween 20 (TBST). Membranes were incubated with primary and secondary antibodies, and target proteins were detected with ECL detection reagent (Pierce, USA). β-Actin (Sigma-Aldrich) served as a loading control. Phospho-c-Abl (Tyr245)(73E5) Rabbit mAb (2868), c-Abl antibody (2862), STAT5 (3H7) Rabbit mAb (9358), Phospho-STAT5 (Tyr694)(C71E5) Rabbit mAb (9314), Akt (pan)(C67E7) Rabbit mAb (4691), Phospho-Akt (Thr308) (244F9) Rabbit mAb (4056), Phospho-Akt (Ser473) (D9E) XP® Rabbit mAb (4060), Phospho-CrkL (Tyr207) antibody (3181), CrkL (32H4) Mouse mAb (3182), Phospho-p44/42 MAPK (Erk1/2) (Thr202/Tyr204) (197G2) Rabbit mAb (4377), p44/42 MAPK (Erk1/2) (137F5) Rabbit mAb (4695) antibodies were obtained from Cell Signaling Technology (MA, USA).

ABL2 = biological target: T4, ABL2 (Homo sapiens, UniProt P42684); assay: KinomeScan profiling; format: binding; conditions: 1 µM CHMFL-074; read-out: % Control
T4 construct: purchased DiscoveRx (KinomeScan service)

[3] = biological target: T5, ABL1(Y253F)-phosphorylated (Homo sapiens, UniProt P00519, Y253F); assay: KinomeScan profiling; format: binding; conditions: 1 µM CHMFL-074; read-out: % Control
T5 construct: purchased DiscoveRx (KinomeScan service)

ABL1 kinase [4] = biological target: T2, ABL1 kinase; assay: Invitrogen Z'LYTE biochemical kinase assay
Protocol: as §1
The fluorescence resonance energy transfer-based Z′-LYTE kinase assay (Invitrogen, USA) was used to evaluate the IC50 value of CHMFL-074 for inhibition of ABL and KIT kinase. […] After 1 hour incubation, the reaction was developed and terminated, and the fluorescence measured with an automated plate reader (SpectraMax I3, USA). […]

[5] = biological target: T6, ABL1(E255K)-phosphorylated (Homo sapiens, UniProt P00519, E255K); assay: KinomeScan profiling; format: binding; conditions: 1 µM CHMFL-074; read-out: % Control
T6 construct: purchased DiscoveRx (KinomeScan service)

T4 sequence (P42684 whole entry): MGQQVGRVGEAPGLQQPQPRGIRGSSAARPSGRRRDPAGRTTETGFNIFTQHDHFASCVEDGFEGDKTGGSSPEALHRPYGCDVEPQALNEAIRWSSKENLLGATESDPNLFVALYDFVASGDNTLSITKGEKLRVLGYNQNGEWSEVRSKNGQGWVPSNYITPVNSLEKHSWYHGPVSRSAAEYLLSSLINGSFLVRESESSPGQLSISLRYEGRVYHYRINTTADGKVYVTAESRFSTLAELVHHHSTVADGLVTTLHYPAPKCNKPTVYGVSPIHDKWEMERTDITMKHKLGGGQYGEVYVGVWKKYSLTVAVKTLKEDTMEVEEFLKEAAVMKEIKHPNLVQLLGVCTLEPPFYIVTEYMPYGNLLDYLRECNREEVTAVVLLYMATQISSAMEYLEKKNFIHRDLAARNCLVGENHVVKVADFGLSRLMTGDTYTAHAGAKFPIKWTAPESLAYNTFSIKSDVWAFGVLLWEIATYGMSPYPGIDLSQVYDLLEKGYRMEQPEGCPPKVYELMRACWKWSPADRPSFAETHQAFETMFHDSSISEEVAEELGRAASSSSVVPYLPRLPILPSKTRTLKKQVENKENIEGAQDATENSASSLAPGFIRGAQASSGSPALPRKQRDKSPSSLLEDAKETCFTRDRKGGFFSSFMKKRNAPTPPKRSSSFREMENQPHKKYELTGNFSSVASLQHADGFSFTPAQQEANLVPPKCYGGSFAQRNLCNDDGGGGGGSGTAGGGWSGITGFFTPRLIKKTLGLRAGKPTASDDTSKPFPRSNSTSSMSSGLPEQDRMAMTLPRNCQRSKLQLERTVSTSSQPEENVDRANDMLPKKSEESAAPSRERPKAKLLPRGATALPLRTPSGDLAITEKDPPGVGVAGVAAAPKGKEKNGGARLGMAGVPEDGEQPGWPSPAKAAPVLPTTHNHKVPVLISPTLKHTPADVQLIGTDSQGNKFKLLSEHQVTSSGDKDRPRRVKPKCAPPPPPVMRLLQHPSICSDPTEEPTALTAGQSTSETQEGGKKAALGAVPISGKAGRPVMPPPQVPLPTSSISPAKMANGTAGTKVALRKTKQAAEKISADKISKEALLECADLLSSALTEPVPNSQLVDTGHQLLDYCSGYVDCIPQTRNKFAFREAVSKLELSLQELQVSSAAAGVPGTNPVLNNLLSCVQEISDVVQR

SMILES: Cc1ccc(NC(=O)c2ccc(CN3CCN(C)CC3)c(C(F)(F)F)c2)cc1OC1CCN(C(=O)c2cccnc2)CC1 [CHMFL-074]
- GI50 (CHO): > 10000 nM
- remaining binding at 1 µM [1]: 1%
- Kd (ABL1 kinase [2]): 24 nM and 24.2 nM
- EC50 (BCR-ABL): < 100 nM
- remaining binding at 1 µM (ABL2): 0.8%
- remaining binding at 1 µM [3]: 0.3%
- IC50 (ABL1 kinase [4]): 25 nM
- remaining binding at 1 µM [5]: 0.3%
